Calls of active or inactive are those of the source. How the calls were made is not given here.
target: Influenza A virus M2 proton channel (A/TW/4845/1999 H1N1); assay: M2 proton channel binding, NMR based, influenza A virus H1N1 strain (AID 1549); details: NMR binding screen, M2 protein

| Structure (SMILES) | Kd |
| --- | --- |
| O=C(NCc1cccnc1)c1ccccn1 | > 4 mM (inactive) |
| O=C(O)c1ccc(Nc2nncc(=O)[nH]2)cc1 | > 4 mM (inactive) |
| COc1ccc(NC(=O)/C=N/O)cc1 | > 4 mM (inactive) |
| COC(=O)CC1SC(=O)NC1=O (stereo unspecified) | > 4 mM (inactive) |
| CCC[C@H]1CC2=C(C[C@@H](CC)CC3=C1C(=O)OC3=O)C(=O)OC2=O | > 4 mM (inactive) |
| CCC(=O)Oc1ccc(N2C(=O)CCC2=O)cc1 | > 4 mM (inactive) |
| Clc1ccc(-n2ccnc2)nn1 | > 4 mM (inactive) |
| O=c1c(Cl)c(NCCO)ncn1-c1ccccc1 | > 4 mM (inactive) |
| S=C1NC(=S)NC(c2ccc3c(c2)OCO3)N1 | > 4 mM (inactive) |
| Cc1scc(C(=O)Nn2cnnc2)c1-c1ccccc1 | > 4 mM (inactive) |
| OCc1ccc2nonc2c1 | > 4 mM (inactive) |
| CC1(C)C2CC(=O)[C@]3(C)C(CC[C@@]4(C)[C@H](c5ccoc5)OC(=O)C5OC543)[C@@]2(C)[C@@H](O)C[C@H]1O (stereo partly specified) | > 4 mM (inactive) |
| O=C(CN1CCOCC1)Nc1cccc(Br)c1 | > 4 mM (inactive) |
| CCCOn1nnnc1-c1ccccc1 | > 4 mM (inactive) |
| O=C(O)CSc1nnc(-c2cccs2)o1 | > 4 mM (inactive) |
| CC(=O)NC(=S)Nc1ccccc1C(N)=O | > 4 mM (inactive) |
| Cc1occc1C(=O)N1CCN(S(C)(=O)=O)CC1 | > 4 mM (inactive) |
| O=c1[nH]c(N2CCOCC2)nc2ccccc12 | > 4 mM (inactive) |
| COc1cccc(NC(=O)c2cccs2)c1 | > 4 mM (inactive) |
| COc1ccc(/C=C2/N=C(N)SC2=O)cc1 | > 4 mM (inactive) |
| Cc1sc2nc3n(c(=O)c2c1C)CCCS3 | > 4 mM (inactive) |
| O=C(CSc1ccnc(=O)[nH]1)NCc1ccccc1 | > 4 mM (inactive) |

| Structure (SMILES) | Kd |
| --- | --- |
| Cc1ccc(SCC(=O)N2CCOCC2)cc1 | > 4 mM (inactive) |
| Nc1cccc2nsnc12 | > 4 mM (inactive) |
| Cc1nc(NC2=NCCC(=O)N2)nc2ccccc12 | > 4 mM (inactive) |
| Cc1cc(C(=O)N2CCN(c3ccccn3)CC2)no1 | > 4 mM (inactive) |
| O=C(O)CCC(=O)Nc1ccccc1F | > 4 mM (inactive) |
| Clc1ccccc1OCc1nc(-c2ccccn2)no1 | > 4 mM (inactive) |
| CC(C)=NNC(=O)C(=O)NC(C)(C)C | > 4 mM (inactive) |
| C[C@@H]1CC[C@@]23CCC4(C)[C@@](C=CC5[C@@]6(C)CC[C@H](O)C(C)(C)C6CC[C@]54C)(OC2=O)C3[C@H]1C (stereo partly specified) | > 4 mM (inactive) |
| Cc1cc(C)n2nc(N)nc2n1 | > 4 mM (inactive) |
| OCC(O)C(O)C(O)CO (stereo unspecified) | > 4 mM (inactive) |
| NCc1cccc(-n2cccc2)c1 | > 4 mM (inactive) |
| Cc1cn(C(=O)CN2C(=O)c3ccccc3C2=O)c(C)n1 | > 4 mM (inactive) |
| O=C(O)c1coc2c1C(=O)CCC2 | > 4 mM (inactive) |
| CC(=O)NC1(NC(C)=O)CCN(C)CC1 | > 4 mM (inactive) |
| CN1C(CC(=O)c2ccccc2)CCCC1CC(O)c1ccccc1 (stereo unspecified) | > 4 mM (inactive) |
| O=P1(O)c2ccccc2Nc2ccccc21 | > 4 mM (inactive) |
| O=C(O)C1CSC2(CCCCC2)N1 (stereo unspecified) | > 4 mM (inactive) |
| O=C1OCCC1Sc1nc2ccccc2c(=O)[nH]1 (stereo unspecified) | > 4 mM (inactive) |
| S=c1nc2c(n[nH]1)[nH]c1ccccc12 | > 4 mM (inactive) |
| FC(F)(F)c1cc(-c2ccco2)nc(N2CCOCC2)n1 | > 4 mM (inactive) |
| O=C(O)C1NCCc2ccccc21 (stereo unspecified) | > 4 mM (inactive) |
| O=C(Nc1ccc2c(c1)OCO2)c1cccc(F)c1 | > 4 mM (inactive) |

| Structure (SMILES) | Kd |
| --- | --- |
| Cc1ccc2nc(SCC(=O)O)nc(C)c2c1 | > 4 mM (inactive) |
| O=C(O)C1COc2ccccc2O1 (stereo unspecified) | > 4 mM (inactive) |
| O=C(O)/C=C/C(=O)Nc1ccccc1C(F)(F)F | > 4 mM (inactive) |
| CC(C)Oc1ccc(NC(N)=O)cc1 | > 4 mM (inactive) |
| O=C(NC1CCS(=O)(=O)C1)C1CCCCC1 (stereo unspecified) | > 4 mM (inactive) |
| O=C(Nc1cccnc1)c1cccs1 | > 4 mM (inactive) |
| COc1ccccc1NC(=O)c1ccc(Br)o1 | > 4 mM (inactive) |
| CCNC(=S)NS(=O)(=O)c1ccccc1 | > 4 mM (inactive) |
| Cc1cc(=O)n(C(N)=S)[nH]1 | > 4 mM (inactive) |
| COc1cccc(NC(=O)c2cnn(C)c2Cl)c1 | > 4 mM (inactive) |
| O=C(O)CSCc1c(F)cccc1Cl | > 4 mM (inactive) |
| Cc1occc1C(=O)Nc1nnc(C(F)(F)F)s1 | > 4 mM (inactive) |
| CCOC(=O)C1CCN(c2ccc(C#N)cc2)CC1 | > 4 mM (inactive) |
| CN1CCOc2cc(C(=O)O)ccc21 | > 4 mM (inactive) |
| CN1CCN(C(=O)Nc2cccc3ccccc23)CC1 | > 4 mM (inactive) |
| CC(=O)OCC(=O)[C@@]1(O)CCC2C3CC[C@@H]4C[C@H](O)CC[C@]4(C)C3C(=O)C[C@@]21C (stereo partly specified) | > 4 mM (inactive) |
| COC(=O)c1c(C)cc(OC(=O)c2c(C)cc(O)c(C=O)c2O)c(C)c1O | > 4 mM (inactive) |
| CC(C)CCCC(C)C1CCC2C3=CC[C@H]4C[C@@H](O)CC[C@]4(C)C3CC[C@@]21C (stereo partly specified) | > 4 mM (inactive) |
| Cc1cc(=O)n2ccc(CN3CCOCC3)c(O)c2n1 | > 4 mM (inactive) |
| Oc1cc(O)c2c(c1)O[C@H](c1cc(O)c(O)c(O)c1)[C@H](O)C2 | > 4 mM (inactive) |
| CC(=O)NC(=S)Nc1ccc(C(C)=O)cc1 | > 4 mM (inactive) |
| O=C1CCCC(=O)N1Cc1ccco1 | > 4 mM (inactive) |

| Structure (SMILES) | Kd |
| --- | --- |
| O=[N+]([O-])c1ccc2c(c1)N([O-])C1(CCCCC1)[N+]2=O | > 4 mM (inactive) |
| CN1C(=O)/C(=C/c2ccccc2O)NC1=S | > 4 mM (inactive) |
| COc1cc(C(=S)N2CCOCC2)ccc1O | > 4 mM (inactive) |
| NCc1cccc2c1OCCO2 | > 4 mM (inactive) |
| CC(C)NS(=O)(=O)c1ccc(N)cc1 | > 4 mM (inactive) |
| CC(=O)n1nc(-c2cccnc2)nc1N | > 4 mM (inactive) |
| COc1cc([C@@H]2c3cc4c(cc3[C@H](O)[C@H]3COC(=O)[C@@H]23)OCO4)cc(OC)c1OC | > 4 mM (inactive) |
| O=CN1CCN(C2CC(=O)N(c3ccccc3)C2=O)CC1 (stereo unspecified) | > 4 mM (inactive) |
| Cc1cc(=O)[nH]c(NCc2cccnc2)n1 | > 4 mM (inactive) |
| O=C(c1ccccc1)N1CCN(c2ccccc2F)CC1 | > 4 mM (inactive) |
| O=C(CN1C(=O)c2cccc3cccc(c23)C1=O)NO | > 4 mM (inactive) |
| COc1c(O)cc(O)cc1O | > 4 mM (inactive) |
| O=C(O)c1ccc(-n2cncn2)cc1 | > 4 mM (inactive) |
| O=c1[nH]c(=S)[nH]c2c1CCC2 | > 4 mM (inactive) |
| CC1(C)O[C@H]2CC(=O)OC[C@]23[C@H]2CC[C@@]4(C)[C@H](c5ccoc5)OC(=O)[C@H]5O[C@]54[C@]2(C)C(=O)C[C@@H]13 | > 4 mM (inactive) |
| Cc1ccc(/C=C2/C(=O)N=C(N)N2C)s1 | > 4 mM (inactive) |
| O=C(NCc1ccccc1Br)c1ccco1 | > 4 mM (inactive) |
| O=C(C1CCCCC1)N1CCN(c2ccccc2F)CC1 | > 4 mM (inactive) |
| O=C1CCC([N+](=O)[O-])C(c2ccccc2F)N1 (stereo unspecified) | > 4 mM (inactive) |
| COc1ccc2cc1Oc1ccc(cc1)C[C@H]1c3c(cc4c(c3Oc3cc5c(cc3OC)CCN(C)[C@@H]5C2)OCO4)CCN1C | > 4 mM (inactive) |

From PubChem BioAssay AID1549 (Sanford-Burnham Center for Chemical Genomics, 2009)
